Test system: 997537-175-T-J1-PDC complex spheroid viability
Test: Anticancer human tumor 997537-175-T-J1-PDC patient-derived colon adenocarcinoma cell line growth inhibition [GQUAD]
Conditions: for IC50: curve of first compound; for viability, T/C: stronger effect = lower value
Procedure, shortened: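 Multi-cell-type spheroids of tumor cells with HUVEC and mesenchymal stem cells, treated with drug combinations. Concentrations descend in half-log steps from near clinical Cmax, or from 10 microM where Cmax is unknown; viability read-out.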

[1] = second compound 0.0316 µM, first compound 0.0316 µM
[2] = second compound 0.0316 µM, first compound 0.1 µM
[3] = second compound 0.0316 µM, first compound 0.316 µM
[4] = second compound 0.0316 µM, first compound 1 µM
[5] = second compound 0.0316 µM, first compound 3.16 µM
[6] = second compound 0.0316 µM, first compound 10 µM
[7] = second compound 0.1 µM, first compound 0.0316 µM
[8] = second compound 0.1 µM, first compound 0.1 µM
[9] = second compound 0.1 µM, first compound 0.316 µM
[10] = second compound 0.1 µM, first compound 1 µM
[11] = second compound 0.1 µM, first compound 3.16 µM
[12] = second compound 0.1 µM, first compound 10 µM
[13] = second compound 0.316 µM, first compound 0.0316 µM
[14] = second compound 0.316 µM, first compound 0.1 µM
[15] = second compound 0.316 µM, first compound 0.316 µM
[16] = second compound 0.316 µM, first compound 1 µM
[17] = second compound 0.316 µM, first compound 3.16 µM
[18] = second compound 0.316 µM, first compound 10 µM
[19] = second compound 1 µM, first compound 0.0316 µM
[20] = second compound 1 µM, first compound 0.1 µM
[21] = second compound 1 µM, first compound 0.316 µM
[22] = second compound 1 µM, first compound 1 µM
[23] = second compound 1 µM, first compound 3.16 µM
[24] = second compound 1 µM, first compound 10 µM
[25] = second compound 3.16 µM, first compound 0.0316 µM
[26] = second compound 3.16 µM, first compound 0.1 µM
[27] = second compound 3.16 µM, first compound 0.316 µM
[28] = second compound 3.16 µM, first compound 1 µM
[29] = second compound 3.16 µM, first compound 3.16 µM
[30] = second compound 3.16 µM, first compound 10 µM
[31] = second compound 10 µM, first compound 0.0316 µM
[32] = second compound 10 µM, first compound 0.1 µM
[33] = second compound 10 µM, first compound 0.316 µM
[34] = second compound 10 µM, first compound 1 µM
[35] = second compound 10 µM, first compound 3.16 µM
[36] = second compound 10 µM, first compound 10 µM
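Also: spheroids exposed to the agents for 7 days.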
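For viability, T/C in this document: 100% = DMSO vehicle control viability.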

CC(C)n1c(=O)n(C)c2cnc3cc(F)c(-c4ccc(OCCCN5CCCCC5)nc4)cc3c21 + Cc1cnc(CNC(=O)c2c(=O)c3ccc(N4CCCN(C)CC4)nc3n3c2sc2ccccc23)cn1
IC50 (second compound 0.0316 µM): > 10 µM | IC50 (second compound 0.1 µM): > 10 µM | IC50 (second compound 0.316 µM): > 10 µM | IC50 (second compound 1 µM): > 10 µM | IC50 (second compound 3.16 µM): > 10 µM | IC50 (second compound 10 µM): > 10 µM | viability, T/C [1]: 112% | viability, T/C [2]: 91.3% | viability, T/C [3]: 104% | viability, T/C [4]: 82.3% | viability, T/C [5]: 91.9% | viability, T/C [6]: 92.5% | viability, T/C [7]: 95% | viability, T/C [8]: 95.9% | viability, T/C [9]: 91.5% | viability, T/C [10]: 82.4% | viability, T/C [11]: 82.6% | viability, T/C [12]: 90.9% | viability, T/C [13]: 101% | viability, T/C [14]: 74% | viability, T/C [15]: 101% | viability, T/C [16]: 84.8% | viability, T/C [17]: 108% | viability, T/C [18]: 93.3% | viability, T/C [19]: 95.6% | viability, T/C [20]: 113% | viability, T/C [21]: 111% | viability, T/C [22]: 80% | viability, T/C [23]: 114% | viability, T/C [24]: 105% | viability, T/C [25]: 87% | viability, T/C [26]: 104% | viability, T/C [27]: 108% | viability, T/C [28]: 105% | viability, T/C [29]: 122% | viability, T/C [30]: 110% | viability, T/C [31]: 87.8% | viability, T/C [32]: 93.4% | viability, T/C [33]: 106% | viability, T/C [34]: 116% | viability, T/C [35]: 98.5% | viability, T/C [36]: 107%

C=CCn1c(=O)c2cnc(Nc3ccc(N4CCN(C)CC4)cc3)nc2n1-c1cccc(C(C)(C)O)n1 + CN(C)c1ccc(Nc2c3ccc(NC(=O)CCN4CCCC4)cc3nc3cc(NC(=O)CCN4CCCC4)ccc23)cc1
IC50 (second compound 0.0316 µM): 2.1 µM | IC50 (second compound 0.1 µM): 2.16 µM | IC50 (second compound 0.316 µM): 6.68 µM | IC50 (second compound 1 µM): 2.86 µM | IC50 (second compound 3.16 µM): 2.42 µM | IC50 (second compound 10 µM): 5.06 µM | viability, T/C [1]: 104% | viability, T/C [2]: 93% | viability, T/C [3]: 91.8% | viability, T/C [4]: 74.4% | viability, T/C [5]: 35.5% | viability, T/C [6]: 31.7% | viability, T/C [7]: 95.8% | viability, T/C [8]: 85.2% | viability, T/C [9]: 89.1% | viability, T/C [10]: 67.5% | viability, T/C [11]: 41.2% | viability, T/C [12]: 25.6% | viability, T/C [13]: 101% | viability, T/C [14]: 73.8% | viability, T/C [15]: 86.5% | viability, T/C [16]: 71.9% | viability, T/C [17]: 84.2% | viability, T/C [18]: 31.8% | viability, T/C [19]: 83.1% | viability, T/C [20]: 72% | viability, T/C [21]: 82.1% | viability, T/C [22]: 75.8% | viability, T/C [23]: 47.5% | viability, T/C [24]: 26.4% | viability, T/C [25]: 74.3% | viability, T/C [26]: 85.9% | viability, T/C [27]: 88% | viability, T/C [28]: 68.5% | viability, T/C [29]: 45.1% | viability, T/C [30]: 33.3% | viability, T/C [31]: 66.1% | viability, T/C [32]: 92.8% | viability, T/C [33]: 111% | viability, T/C [34]: 74.2% | viability, T/C [35]: 58.5% | viability, T/C [36]: 39.9%

Nc1ccn(C2OC(CO)C(O)C2(F)F)c(=O)n1 (stereo not drawn) + Cc1[nH]c2ccc(F)cc2c1-c1nc2c3cccnc3c3ncccc3c2[nH]1
IC50 (second compound 0.0316 µM): > 10 µM | IC50 (second compound 0.1 µM): > 10 µM | IC50 (second compound 0.316 µM): > 10 µM | IC50 (second compound 1 µM): > 10 µM | IC50 (second compound 3.16 µM): > 10 µM | IC50 (second compound 10 µM): > 10 µM | viability, T/C [1]: 106% | viability, T/C [2]: 82.5% | viability, T/C [3]: 98.7% | viability, T/C [4]: 80.1% | viability, T/C [5]: 86.2% | viability, T/C [6]: 97.4% | viability, T/C [7]: 107% | viability, T/C [8]: 87.2% | viability, T/C [9]: 91.5% | viability, T/C [10]: 74.2% | viability, T/C [11]: 87.4% | viability, T/C [12]: 87.5% | viability, T/C [13]: 99.2% | viability, T/C [14]: 84.6% | viability, T/C [15]: 84.1% | viability, T/C [16]: 73.9% | viability, T/C [17]: 90.4% | viability, T/C [18]: 70.2% | viability, T/C [19]: 103% | viability, T/C [20]: 96.3% | viability, T/C [21]: 94.7% | viability, T/C [22]: 98.2% | viability, T/C [23]: 82.6% | viability, T/C [24]: 93.5% | viability, T/C [25]: 77.4% | viability, T/C [26]: 69% | viability, T/C [27]: 76% | viability, T/C [28]: 73.1% | viability, T/C [29]: 83% | viability, T/C [30]: 84.8% | viability, T/C [31]: 78.3% | viability, T/C [32]: 81.4% | viability, T/C [33]: 90.4% | viability, T/C [34]: 87.2% | viability, T/C [35]: 80.1% | viability, T/C [36]: 87.5%

COc1ncnc(C2CC2)c1-c1ncc2cnn(Cc3ccc(-c4nc(C(F)(F)F)cn4C(C)C)cc3)c2n1 + CN(C)c1ccc(Nc2c3ccc(NC(=O)CCN4CCCC4)cc3nc3cc(NC(=O)CCN4CCCC4)ccc23)cc1
IC50 (second compound 0.0316 µM): > 10 µM | IC50 (second compound 0.1 µM): > 10 µM | IC50 (second compound 0.316 µM): > 10 µM | IC50 (second compound 1 µM): > 10 µM | IC50 (second compound 3.16 µM): > 10 µM | IC50 (second compound 10 µM): > 10 µM | viability, T/C [1]: 99% | viability, T/C [2]: 88.7% | viability, T/C [3]: 79.4% | viability, T/C [4]: 77.8% | viability, T/C [5]: 77.8% | viability, T/C [6]: 97.8% | viability, T/C [7]: 91.4% | viability, T/C [8]: 80.4% | viability, T/C [9]: 82.2% | viability, T/C [10]: 62.4% | viability, T/C [11]: 81.4% | viability, T/C [12]: 76.7% | viability, T/C [13]: 73% | viability, T/C [14]: 85.5% | viability, T/C [15]: 86.5% | viability, T/C [16]: 81.1% | viability, T/C [17]: 87.5% | viability, T/C [18]: 82.1% | viability, T/C [19]: 69.2% | viability, T/C [20]: 88.2% | viability, T/C [21]: 81.5% | viability, T/C [22]: 79% | viability, T/C [23]: 85.7% | viability, T/C [24]: 82.1% | viability, T/C [25]: 74.5% | viability, T/C [26]: 87.6% | viability, T/C [27]: 86.6% | viability, T/C [28]: 84.3% | viability, T/C [29]: 86.4% | viability, T/C [30]: 91.8% | viability, T/C [31]: 75.5% | viability, T/C [32]: 81.7% | viability, T/C [33]: 86.8% | viability, T/C [34]: 77.2% | viability, T/C [35]: 89% | viability, T/C [36]: 84.7%

From PubChem BioAssay AID2060487 (Molecular Pharmacology Branch, DTP, NCI, 2025)
